Data: patent US4271073A, “6-Substituted-9-(2-hydroxyethyl)-1,2,3,4-tetrahydro carbazol-1-one” (Cassella Aktiengesellschaft, priority 1979, dated 1981)

Experiment: Antagonism Tetrabenazine (antidepressive action)
Format: in vivo
Settings: species, route and unit inferred, read-out: ED50 Antagonism Dosage Tetrabenazine

SMILES	ED50
COc1ccc2c(c1)c1c3n2CCN=C3CCC1.Cl [Example 2, 8-methoxy-2,4,5,6-tetrahydro-1H-pyrazino[3,2,1-jk]carbazole-hydrochloride]	2 mg/kg
Cc1ccc2c(c1)c1c3n2CCN=C3CCC1.Cl [Example 1, 8-methyl-2,4,5,6-tetrahydro-1H-pyrazino[3,2,1-jk]carbazole-hydrochloride]	4 mg/kg
Cc1ccc2c(c1)c1c3n2CCNC3CCC1.Cl (stereo not drawn) [8-methyl-2,3,3a,4,5,6-hexahydro-1H-pyrazino[3,2,1-jk]carbazole-hydrochloride, reference compound]	14 mg/kg
